# US9326973B2, “Hepatitis C virus inhibitors” (priority 2012, dated 2016)
# Tested on: HCV replicon, genotype-1a variant with glutamine 30 changed to glutamate in the NS5A protein
# Assay: microbe, parasite or virus in culture
# Assay type: cell-based, HCV genotype 1a
# Settings: HCV replicon genotype 1a Q30E (Q→E) variant; test compound titrated with an NS5A-targeting compound (BMS-790052 fixed at 200 nM); ranking of synergist activity
# Summary of the method: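 Synergy was assessed by combining several fixed amounts of an NS5A-targeting compound with a titration of the second compound of interest.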
row,Compound,Fold-Synergistic 1a (Q30E)
1,CC1(C(=O)N[C@H](c2nc(-c3ccc(-c4ccc(-c5c[nH]c([C@@H](NC(=O)C6(C)CC7C=CC6C7)C(C)(C)C)n5)cc4)cc3)c[nH]2)C(C)(C)C)CC2C=CC1C2 (some centres unmarked) [Compound S-298],>100 fold
2,Cc1nn(C)c2ncc(C(=O)N3CCC[C@H]3c3ncc(-c4ccc(-c5ccc(-c6cnc([C@@H]7CCCN7C(=O)c7cnc8c(c(C)nn8C)c7Cl)[nH]6)cc5)cc4)[nH]3)c(Cl)c12 [Compound S-132],<10 fold
3,O=C(c1cccs1)N1CCC[C@H]1c1ncc(-c2ccc(-c3ccc(-c4cnc([C@@H]5CCCN5C(=O)c5cccs5)[nH]4)cc3)cc2)[nH]1 [Compound S-182],<10 fold
4,CC1(C(=O)N2CCC[C@H]2c2ncc(-c3ccc(-c4ccc(-c5cnc([C@@H]6CCCN6C(=O)C6(C)CC6)[nH]5)cc4)cc3)[nH]2)CC1 [Compound S-160],<10 fold
5,O=C(C1CCC1)N1CCC[C@H]1c1ncc(-c2ccc(-c3ccc(-c4cnc([C@@H]5CCCN5C(=O)C5CCC5)[nH]4)cc3)cc2)[nH]1 [Compound S-162],<10 fold
6,O=C(c1csc(-c2ccccc2)n1)N1CCC[C@H]1c1ncc(-c2ccc(-c3ccc(-c4cnc([C@@H]5CCCN5C(=O)c5csc(-c6ccccc6)n5)[nH]4)cc3)cc2)[nH]1 [Compound S-138],>100 fold
7,CCN(CC(F)(F)F)C(=O)C(=O)N[C@H](c1nc(-c2ccc(-c3ccc(-c4c[nH]c([C@@H](NC(=O)C(=O)N(CC)CC(F)(F)F)C5CC5)n4)cc3)cc2)c[nH]1)C1CC1 [Compound L-35],>100 fold
8,CC(C)CC(=O)N[C@@H](CC(C)C)c1nc(-c2ccc(-c3ccc(-c4c[nH]c([C@H](CC(C)C)NC(=O)CC(C)C)n4)cc3)cc2)c[nH]1 [Compound N-31],>10 fold
9,O=C(C1Cc2ccccc21)N1CCC[C@H]1c1ncc(-c2ccc(-c3ccc(-c4cnc([C@@H]5CCCN5C(=O)C5Cc6ccccc65)[nH]4)cc3)cc2)[nH]1 (some centres unmarked) [Compound S-163],<10 fold
10,O=C(c1ncc(Cl)c2ccccc12)N1CCC[C@H]1c1ncc(-c2ccc(-c3ccc(-c4cnc([C@@H]5CCCN5C(=O)c5ncc(Cl)c6ccccc56)[nH]4)cc3)cc2)[nH]1 [Compound S-200],>100 fold
11,CC(C)(C)[C@H](NC(=O)C1(CF)CCCO1)c1nc(-c2ccc(-c3ccc(-c4c[nH]c([C@@H](NC(=O)C5(CF)CCCO5)C(C)(C)C)n4)cc3)cc2)c[nH]1 (some centres unmarked) [Compound P-161],>100 fold
12,CC(C)(C)[C@H](NC(=O)C(F)(F)C(O)c1cccnc1)c1nc(-c2ccc(-c3ccc(-c4c[nH]c([C@@H](NC(=O)C(F)(F)C(O)c5cccnc5)C(C)(C)C)n4)cc3)cc2)c[nH]1 (some centres unmarked) [Compound S-283],>100 fold
13,CC1([C@H](NC(=O)[C@@]2(C)CC(F)(F)CO2)c2nc(-c3ccc(-c4ccc(-c5c[nH]c([C@@H](NC(=O)[C@@]6(C)CC(F)(F)CO6)C6(C)CC6)n5)cc4)cc3)c[nH]2)CC1 [Compound Y-83],>100 fold
14,CC(C)OC(=O)N1C[C@H](F)C[C@H]1C(=O)N[C@H](c1nc(-c2ccc(-c3ccc(-c4c[nH]c([C@@H](NC(=O)[C@@H]5C[C@@H](F)CN5C(=O)OC(C)C)C(C)(C)C)n4)cc3)cc2)c[nH]1)C(C)(C)C [Compound W-107],>100 fold
15,COC(C)(C)C(=O)N[C@H](c1nc(-c2ccc(-c3ccc(-c4c[nH]c([C@@H](NC(=O)C(C)(C)OC)C(C)(C)C)n4)c(C)c3)cc2)c[nH]1)C(C)(C)C [Compound N-85],>100 fold
16,COC(=O)C1(C(=O)N[C@H](c2nc(-c3ccc(-c4ccc(-c5c[nH]c([C@@H](NC(=O)C6(C(=O)OC)CC6)C(C)(C)C)n5)cc4)cc3)c[nH]2)C(C)(C)C)CC1 [Compound W-124],>100 fold
17,COC(=O)N[C@H](C(=O)NC1(c2nc(-c3ccc(-c4ccc(-c5c[nH]c(C6(NC(=O)[C@@H](NC(=O)OC)C(C)C)CCCCC6)n5)cc4)cc3)c[nH]2)CCCCC1)C(C)C [Compound N-23],<10 fold
18,COC(=O)N1CCC(F)(F)C[C@H]1C(=O)N[C@H](c1nc(-c2ccc(-c3ccc(-c4c[nH]c([C@@H](NC(=O)[C@@H]5CC(F)(F)CCN5C(=O)OC)C(C)(C)C)n4)cc3)cc2)c[nH]1)C(C)(C)C [Compound L-43],>100 fold
19,CCCC(C)(C)C(=O)N1CCC[C@H]1c1ncc(-c2ccc(-c3ccc(-c4cnc([C@@H]5CCCN5C(=O)C(C)(C)CCC)[nH]4)cc3)cc2)[nH]1 [Compound S-190],<10 fold
20,CC(C)(C)OC(=O)N1CCOC[C@H]1C(=O)N[C@H](c1nc(-c2ccc(-c3ccc(-c4c[nH]c([C@@H](NC(=O)[C@@H]5COCCN5C(=O)OC(C)(C)C)C(C)(C)C)n4)cc3)cc2)c[nH]1)C(C)(C)C [Compound L-61],>100 fold
21,COC(C)(C(=O)N[C@H](c1nc(-c2ccc(-c3ccc(-c4c[nH]c([C@@H](NC(=O)C(C)(OC)C5(O)CCC(F)(F)CC5)C(C)(C)C)n4)cc3)cc2)c[nH]1)C(C)(C)C)C1(O)CCC(F)(F)CC1 (some centres unmarked) [Compound P-156],>100 fold

row,Compound,Fold-Synergistic 1a (Q30E)
1,CC(C)(C)[C@H](NC(=O)C1CCC2(CC1)CC2)c1nc(-c2ccc(-c3ccc(-c4c[nH]c([C@@H](NC(=O)C5CCC6(CC5)CC6)C(C)(C)C)n4)cc3)cc2)c[nH]1 (some centres unmarked) [Compound N-123],>100 fold
2,CC(C)(C)OC(=O)N[C@@H]1CCC[C@H]1C(=O)N[C@H](c1nc(-c2ccc(-c3ccc(-c4c[nH]c([C@@H](NC(=O)[C@@H]5CCC[C@H]5NC(=O)OC(C)(C)C)C(C)(C)C)n4)cc3)cc2)c[nH]1)C(C)(C)C [Compound W-12],>100 fold
3,NC(=O)CCC(=O)N1CCC[C@H]1c1ncc(-c2ccc(-c3ccc(-c4cnc([C@@H]5CCCN5C(=O)CCC(N)=O)[nH]4)cc3)cc2)[nH]1 [Compound S-186],<10 fold
4,CC(C)(C(=O)N[C@H](c1nc(-c2ccc(-c3ccc(-c4c[nH]c([C@@H](NC(=O)C(C)(C)C(=O)N5CC[C@H](O)C5)C(C)(C)C)n4)cc3)cc2)c[nH]1)C(C)(C)C)C(=O)N1CC[C@H](O)C1 [Compound W-152],>100 fold
5,CC(C)[C@H](NC(=O)C(C)(C)C)c1nc(-c2ccc(-c3ccc(-c4c[nH]c([C@@H](NC(=O)C(C)(C)C)C(C)C)n4)cc3F)cc2)c[nH]1 [Compound N-100],>100 fold
6,CC(C)(C)[C@H](NC(=O)CN1CCOC1=O)c1nc(-c2ccc(-c3ccc(-c4c[nH]c([C@@H](NC(=O)CN5CCOC5=O)C(C)(C)C)n4)cc3)cc2)c[nH]1 [Compound L-25],>10 fold
7,CC(C)(C)[C@H](NC(=O)C1(CO)CCCCO1)c1nc(-c2ccc(-c3ccc(-c4c[nH]c([C@@H](NC(=O)C5(CO)CCCCO5)C(C)(C)C)n4)cc3)cc2)c[nH]1 (some centres unmarked) [Compound P-182],>100 fold
8,Cc1cc(-c2ccc(-c3c[nH]c([C@@H](NC(=O)C4CCC(F)(F)CC4)C(C)C)n3)cc2)ccc1-c1c[nH]c([C@@H](NC(=O)C2CCC(F)(F)CC2)C(C)C)n1 [Compound N-82],>100 fold
9,CC(C)(C)[C@H](NC(=O)C1C2C3CCC(C3)C12)c1nc(-c2ccc(-c3ccc(-c4c[nH]c([C@@H](NC(=O)C5C6C7CCC(C7)C56)C(C)(C)C)n4)cc3)cc2)c[nH]1 (some centres unmarked) [Compound Y-62],>100 fold
10,CC(C)(C)OC(=O)N1[C@@H]2CC2C[C@H]1C(=O)N[C@H](c1nc(-c2ccc(-c3ccc(-c4c[nH]c([C@@H](NC(=O)[C@@H]5CC6C[C@H]6N5C(=O)OC(C)(C)C)C(C)(C)C)n4)cc3)cc2)c[nH]1)C(C)(C)C (some centres unmarked) [Compound W-67],>100 fold
11,CC(C)(C)NC(C)(C)C(=O)N[C@H](c1nc(-c2ccc(-c3ccc(-c4c[nH]c([C@@H](NC(=O)C(C)(C)NC(C)(C)C)C(C)(C)C)n4)cc3)cc2)c[nH]1)C(C)(C)C [Compound P-175],>100 fold
12,CCCC(C)C(=O)N1CCC[C@H]1c1ncc(-c2ccc(-c3ccc(-c4cnc([C@@H]5CCCN5C(=O)C(C)CCC)[nH]4)cc3)cc2)[nH]1 (some centres unmarked) [Compound S-170],<10 fold
13,O=C(Cc1ccc(Oc2ccccc2)cc1)N1CCC[C@H]1c1ncc(-c2ccc(-c3ccc(-c4cnc([C@@H]5CCCN5C(=O)Cc5ccc(Oc6ccccc6)cc5)[nH]4)cc3)cc2)[nH]1 [Compound S-154],>10 fold
14,CC(C)[C@H](NC(=O)C1CCC(F)(F)CC1)c1nc(-c2ccc3c(c2)Cc2cc(-c4c[nH]c([C@@H](NC(=O)C5CCC(F)(F)CC5)C(C)C)n4)ccc2-3)c[nH]1 [Compound N-70],>100 fold
15,CC(C)(C)[C@H](NC(=O)[C@@H]1C[C@@H](F)CN1C(=O)OCCF)c1nc(-c2ccc(-c3ccc(-c4c[nH]c([C@@H](NC(=O)[C@@H]5C[C@@H](F)CN5C(=O)OCCF)C(C)(C)C)n4)cc3)cc2)c[nH]1 [Compound W-108],>100 fold
16,CC1(C(=O)N[C@H](c2nc(-c3ccc(-c4ccc(-c5c[nH]c([C@@H](NC(=O)C6(C)OCC7(CC7)CO6)C(C)(C)C)n5)cc4)cc3)c[nH]2)C(C)(C)C)OCC2(CC2)CO1 (stereo partly drawn) [Compound L-84],>100 fold
17,C[C@@H]1CN(C(C)(C)C(=O)N[C@H](c2nc(-c3ccc(-c4ccc(-c5c[nH]c([C@@H](NC(=O)C(C)(C)N6C[C@@H](C)O[C@@H](C)C6)C6(C)CC6)n5)cc4)cc3)c[nH]2)C2(C)CC2)C[C@H](C)O1 [Compound W-162],>100 fold
18,CC(C)(C(=O)N[C@H](c1nc(-c2ccc(-c3ccc(-c4c[nH]c([C@@H](NC(=O)C(C)(C)C(=O)NC56CC(C5)C6)C(C)(C)C)n4)cc3)cc2)c[nH]1)C(C)(C)C)C(=O)NC12CC(C1)C2 [Compound W-155],>100 fold
19,CCCCCC(=O)N1CCC[C@H]1c1ncc(-c2ccc(-c3ccc(-c4cnc([C@@H]5CCCN5C(=O)CCCCC)[nH]4)cc3)cc2)[nH]1 [Compound S-181],>10 fold
20,COC(=O)CCC(=O)N1CCC[C@H]1c1ncc(-c2ccc(-c3ccc(-c4cnc([C@@H]5CCCN5C(=O)CCC(=O)OC)[nH]4)cc3)cc2)[nH]1 [Compound S-173],<10 fold
